Results from patent US20190315814A1, “LANTIBIOTIC VARIANTS AND USES THEREOF” (priority 2016, published 2019).
Values after ≈ are worked out from the molar mass of the structure shown. Like-named read-outs stand apart in the source and are kept apart here. Marks after values point to notes of the source that are not given here.

How the values were obtained:
[1] = test system: Streptococcus pneumoniae (ATCC 700675); test: MIC assay against Streptococcus pneumoniae; type: cell-based; settings: ATCC700675, read-out: MIC S. pneumonia
[2] = test system: Clostridium difficile UNT103-1; test: Non-cannulated Syrian hamster C. difficile infection model, oral gavage; type: in vivo, Golden Syrian hamsters; settings: for Efficacy compared with Vancomycin-treated animals: end of the study at Day 22, in words; for Efficacy compared with Vancomycin-treated animals / Toxin A level at Day-22 / Mean LOG10 CFU/mL of feces homogenates (cecal spore counts) at Day-22 / Toxin B level at Day-22: oral gavage; for Percent Survival at Day-22: oral gavage TID Days 2-6, vancomycin 20 mg/kg once a day; for Toxin A level at Day-22: first value of A/B cell; for Toxin A level at Day-22 / Toxin B level at Day-22: limit of detection 0.8; for Mean LOG10 CFU/mL of feces homogenates (cecal spore counts) at Day-22: limit of detection 2.40; for Toxin B level at Day-22: second value of A/B cell
Method: (§1) Following the recovery phase, male Golden Syrian hamsters were inoculated with Clostridium difficile UNT103-1 (VA11, non epidemic (cdtB-, REA group J) Curtis Donskey, Cleveland VA Hospital, Cleveland, Ohio). On Day 1, at 24 hrs after infection, all animals received a single subcutaneous injection of clindamycin (10 mg/kg). Test article formulations were administered three times per day (TID), starting on Day 2 at 18 hours after Clindamycin injection, for 5 consecutive days (Days 2 through 6), and followed until Day 22 to assess recurrence. Vancomycin (positive control) was administered once a day at 20 mg/kg on Days 2 through 6. Cecal spore counts and Toxins A and B were determined as described above

[3] = test system: Eggerthella lenta (ATCC 27337)
[4] = test system: Heliobacter pylori
[5] = test system: Clostridium difficile UNT103-1; test: Second non-cannulated Syrian hamster C. difficile infection model, oral gavage dose range-finding; type: in vivo, Golden Syrian hamsters
Method: as §1, with “formulated at 3 to 5 different doses” for “formulations”, “above.” for “above”

[6] = test system: Lactobacillus acidophilus (CCUG 4356)
[7] = test system: Peptostreptococcus anaerobius (ATCC 27337)
[8] = test system: VRE Enterococcus faecalis; settings: VRE
[9] = test system: VRE Enterococcus faecium
[10] = simulated gi fluid
[11] = test system: Clostridium scindens (ATCC 35704)
[12] = in vitro; settings: simulated gi fluid
Method: Assay incubation conditions included […] simulated gastric fluid (SGF, USP 39 Test Solution; 2 g/L NaCl, 7 mL/L glacial HCl, pH 1.4) containing 1.75 mg/mL Pepsin (3200-4500 U/mg) mixed with 7.5 μL of 10 mg/mL variant (or positive control, NH2-Met-Arg-Phe-Ala-OH, MRFA, CAS#67368-29-0) for a final concentration of 300 μg/ml variant in a microfuge tube. Samples were incubated at 37° C. and analyzed using HPLC or LC-MS for loss of substrate. The percent remaining, elimination rate constant (Ke), and in vitro protein half-lives were calculated. A control of SGF without enzyme was also run and analyzed in the same manner for each variant.

[13] = test system: Staphylococcus aureus; test: MIC assay against Staphylococcus aureus; type: cell-based
[14] = 6 mg/Kg oral gavage TID Days 2-6
[15] = 20 mg/Kg oral gavage TID Days 2-6
[16] = 60 mg/Kg oral gavage TID Days 2-6
[17] = FaSSIF + 1% pancreatin + 3 μg/ml trypsin + 3 μg/ml chymotrypsin half-life
[18] = 35 mg/Kg oral gavage TID, limit of detection 0.8

Row | Compound | Efficacy compared with Vancomycin-treated animals [2] | Percent Survival at Day-22 [2] [%] | Toxin A level at Day-22 [2] | Mean LOG10 CFU/mL of feces homogenates (cecal spore counts) at Day-22 [2] | Toxin B level at Day-22 [2] | MIC E. lenta [3] [µg/mL] | MIC to H. Pylori without EDTA [4] [µg/mL] | MIC to H. Pylori with 0.05M EDTA [4] [µg/mL] | Mean LOG10 CFU/mL of feces homogenates (cecal spore counts) at Day-22 ([5]; 6 mg/Kg oral gavage TID) [LOG10 CFU/mL] | Toxin A level at Day-22 ([5]; 6 mg/Kg oral gavage TID) [ng/mL] | Toxin B level at Day-22 ([5]; 6 mg/Kg oral gavage TID) [ng/mL] | MIC L. acidophilus [6] [µg/mL] | MIC P. anaerobius [7] [µg/mL] | MIC VRE ATCC 51575 [8] [µg/mL] | MIC VRE CCUG 47775 [8] [µg/mL] | MIC VRE ATCC 700221 [9] [µg/mL] | half-life [10, 17] [h] | half-life ([10]; FaSSIF only half-life) [h] | MIC C. scindens [11] [µg/mL] | half-life [12] [h] | other results
1 | CC1(C)S[C@@H]2[C@H](NC(=O)[C@H](N)c3ccccc3)C(=O)N2[C@H]1C(=O)O [Ampicillin] |  |  |  |  |  |  |  |  |  |  |  |  |  |  |  |  |  |  |  |  | MIC [1]: 1 µg/mL (≈ 2.86 µM)
2 | C=C1NC(=O)[C@H](Cc2c[nH]c3ccccc23)NC(=O)[C@H](NC(=O)[C@H](CCCCN)NC(=O)[C@@H](N)[C@@H](C)CC)CSC[C@@H](C(=O)N[C@H]2C(=O)N3CCC[C@H]3C(=O)NCC(=O)N[C@H](C(=O)N[C@@H](C)C(=O)N[C@@H](CC(N)=O)C(=O)NC(=CC)C(=O)NCC(=O)N[C@@H]3CSC[C@@H]4NC(=O)[C@H](Cc5ccccc5)NC(=O)[C@@H](CS/C=C\NC4=O)NC(=O)[C@H](CC(N)=O)NC(=O)[C@H](Cc4ccccc4)NC3=O)CS[C@H]2C)NC(=O)[C@H](CC(C)C)NC1=O [F1I R13N Y20F] | equal or superior efficacy | 83 | 5.1 ng/mL | 2.65 LOG10 CFU/mL | 6 ng/mL | 0.125 (≈ 0.0575 µM) | 8 (≈ 3.68 µM) | 4 | 5.47 | 215.5 | 242.2 | 0.5 (≈ 0.23 µM) | 0.125 (≈ 0.0575 µM) | 8 (≈ 3.68 µM) | 16 (≈ 7.36 µM) | 8 (≈ 3.68 µM) | > 12 | > 12 | 2 (≈ 0.921 µM) | > 24 | Percent Survival at Day-22 [5, 14]: 0%; Mean LOG10 CFU/mL of feces homogenates (cecal spore counts) at Day-22 ([5]; 20 mg/Kg oral gavage TID): 5.37 LOG10 CFU/mL; Toxin A level at Day-22 ([5]; 20 mg/Kg oral gavage TID): 165.5 ng/mL; Toxin B level at Day-22 ([5]; 20 mg/Kg oral gavage TID): 272.3 ng/mL; Percent Survival at Day-22 [5, 15]: 33%; Mean LOG10 CFU/mL of feces homogenates (cecal spore counts) at Day-22 ([5]; 60 mg/Kg oral gavage TID): 3.18 LOG10 CFU/mL; Toxin A level at Day-22 ([5]; 60 mg/Kg oral gavage TID): 47.6 ng/mL; Toxin B level at Day-22 ([5]; 60 mg/Kg oral gavage TID): 108.7 ng/mL; Percent Survival at Day-22 [5, 16]: 83%
3 | C=C1NC(=O)[C@H](Cc2c[nH]c3ccccc23)NC(=O)[C@H](NC(=O)[C@H](CCCCN)NC(=O)[C@@H](N)CC(C)C)CSC[C@@H](C(=O)N[C@H]2C(=O)N3CCC[C@H]3C(=O)NCC(=O)N[C@H](C(=O)N[C@@H](C)C(=O)N[C@@H](CC(N)=O)C(=O)NC(=CC)C(=O)NCC(=O)N[C@@H]3CSC[C@@H]4NC(=O)[C@H](Cc5ccc(O)cc5)NC(=O)[C@@H](CS/C=C\NC4=O)NC(=O)[C@H](CC(N)=O)NC(=O)[C@H](Cc4ccccc4)NC3=O)CS[C@H]2C)NC(=O)[C@H](CC(C)C)NC1=O [F1L R13N] |  | 0 | 5477.8 ng/mL | 7.36 LOG10 CFU/mL | 2189.1 ng/mL | 0.25 (≈ 0.114 µM) | 8 (≈ 3.66 µM) | 8 |  |  |  | 0.5 (≈ 0.228 µM) | 0.25 (≈ 0.114 µM) | 16 (≈ 7.31 µM) | 16 (≈ 7.31 µM) | 16 (≈ 7.31 µM) | > 12 | > 12 | 4 (≈ 1.83 µM) | > 24 | 
4 | C=C1NC(=O)[C@H](Cc2c[nH]c3ccccc23)NC(=O)[C@H](NC(=O)[C@H](CCCCN)NC(=O)[C@@H](N)C(C)C)CSC[C@@H](C(=O)N[C@H]2C(=O)N3CCC[C@H]3C(=O)NCC(=O)N[C@H](C(=O)N[C@@H](C)C(=O)N[C@@H](CC(N)=O)C(=O)N/C(=C\C)C(=O)NCC(=O)N[C@@H]3CSC[C@@H]4NC(=O)[C@H](Cc5ccc(O)cc5)NC(=O)[C@@H](CS/C=C\NC4=O)NC(=O)[C@H](CC(N)=O)NC(=O)[C@H](Cc4ccccc4)NC3=O)CS[C@H]2C)NC(=O)[C@H](CC(C)C)NC1=O [F1V R13N] | equal or superior efficacy | 100 | 0.8/0.8** ng/mL | 2.4* LOG10 CFU/mL | 0.8/0.8** ng/mL | 0.5 (≈ 0.23 µM) | 8 (≈ 3.68 µM) | 8 | 4.27 | 266.2 | 238.1 | 0.5 (≈ 0.23 µM) | 0.25 (≈ 0.115 µM) | 32 (≈ 14.7 µM) | 32 (≈ 14.7 µM) | 16 (≈ 7.36 µM) | > 12 | > 12 | 4 (≈ 1.84 µM) | > 24 | Mean LOG10 CFU/mL of feces homogenates (cecal spore counts) at Day-22 ([5]; 2 mg/Kg oral gavage TID): 6.13 LOG10 CFU/mL; Toxin A level at Day-22 ([5]; 2 mg/Kg oral gavage TID): 578.5 ng/mL; Toxin B level at Day-22 ([5]; 2 mg/Kg oral gavage TID): 462.7 ng/mL; Percent Survival at Day-22 ([5]; 2 mg/Kg oral gavage TID Days 2-6): 0%; Percent Survival at Day-22 [5, 14]: 50%; Mean LOG10 CFU/mL of feces homogenates (cecal spore counts) at Day-22 ([5]; 20 mg/Kg oral gavage TID): 3.88 LOG10 CFU/mL; Toxin A level at Day-22 ([5]; 20 mg/Kg oral gavage TID): 74.2 ng/mL; Toxin B level at Day-22 ([5]; 20 mg/Kg oral gavage TID): 57.8 ng/mL; Percent Survival at Day-22 [5, 15]: 66%; Percent Survival at Day-22 ([5]; 35 mg/Kg oral gavage TID Days 2-6): 100%; Toxin A level at Day-22 [5, 18]: 0.8/0.8** ng/mL; Toxin B level at Day-22 [5, 18]: 0.8/0.8** ng/mL; Mean LOG10 CFU/mL of feces homogenates (cecal spore counts) at Day-22 ([5]; 35 mg/Kg oral gavage TID, limit of detection 2.40): 2.40* LOG10 CFU/mL; Mean LOG10 CFU/mL of feces homogenates (cecal spore counts) at Day-22 ([5]; 60 mg/Kg oral gavage TID): 2.51 LOG10 CFU/mL; Toxin A level at Day-22 ([5]; 60 mg/Kg oral gavage TID): 7.3 ng/mL; Toxin B level at Day-22 ([5]; 60 mg/Kg oral gavage TID): 5.5 ng/mL; Percent Survival at Day-22 [5, 16]: 83%; Efficacy compared with Vancomycin-treated animals at the same dose ([5]; end of the study at Day 21, ascending dose regimen, in words): superior efficacy
5 | Gentamicin |  |  |  |  |  |  |  |  |  |  |  |  |  |  |  |  |  |  |  |  | MIC S. aureus ATCC 19636 ([13]; strain ATCC 19636): 0.125 µg/mL; MIC S. aureus ATCC 29213 ([13]; strain ATCC 29213): 0.25 µg/mL; MIC SS. aureus ATCC 33591 ([13]; strain ATCC 33591): 1 µg/mL; MIC S. aureus BAA-1717 ([13]; strain BAA-1717): 0.25 µg/mL
